Results taken from patent US4229438A, “Nonapeptides” (Takeda Chemical Industries, Ltd., priority 1978, dated 1980).
Residues, ends and D or L forms follow the SMILES beside them.

test system: spleen cells of C3H/He mouse (23-26% albumin layer interface fraction); assay: Determination of theta antigen induction activity (procedure analogous to Komuro et al); format: cell-based; conditions: C3H/He mouse spleen cell fraction in RPMI-1640, incubated with peptide at 37° C. for 2 hours; lysis with anti(theta) serum and guinea-pig complement
Procedure: The theta antigen induction activity of the nonapeptide (I) is assayed by a procedure analogous to the procedure described in the article of Komuro et al [The Lancet, i, 740-743 (1973)]. The spleen is enucleated from a C3H/He mouse, 2-3 months old, and minced in a tissue culture fluid (RPMI-1640). The resulting spleen cell suspension is fractionated by discontinuous density gradient centrifugation using 10 to 35% bovine serum albumin. The cells migrating to the 23-26% albumin layer interface are collected and resuspended in RPMI-1640. To this cell suspension is added the peptide, the activity of which is to be determined, at a varying concentration and the mixture is incubated at 37° C. for 2 hours. If the peptide added be active, fresh theta antigen will appear on the cell surface. Therefore, the count of such cells is taken by lysing with an outbred mouse anti(theta) serum and guinea-pig complement. The theta-antigen induction activity is computed by means of the following equation. Theta-antigen induction activity(%)=(A-B/A)×100 where A is the count of theta antigen-negative cells in the absence of the test peptide and B is the count of theta antigen-negative cells when the test peptide has been added.

| Compound | The concentration required for showing at least 10% theta antigen induction activity [ng/mL] |
| --- | --- |
| C[C@@H](NC(=O)[C@@H]1CCC(=O)N1)C(=O)N[C@@H](CCCCN)C(=O)N[C@@H](CO)C(=O)N[C@@H](CCC(N)=O)C(=O)NCC(=O)NCC(=O)N[C@@H](CO)C(=O)N[C@@H](CC(N)=O)C(=O)O [Example 1, pGlu-(D)-Ala-Lys-Ser-Gln-Gly-Gly-Ser-Asn-OH] (HELM PEPTIDE1{[Glp].[dA].K.S.Q.G.G.S.N}$$$$V2.0) | 1 to 10 |
| C[C@H](NC(=O)[C@@H]1CCC(=O)N1)C(=O)N[C@@H](CCCCN)C(=O)N[C@@H](CO)C(=O)N[C@@H](CCC(N)=O)C(=O)NCC(=O)N[C@H](C)C(=O)N[C@@H](CO)C(=O)N[C@@H](CC(N)=O)C(=O)O [Example 3, pGlu-Ala-Lys-Ser-Gln-Gly-(D)-Ala-Ser-Asn-OH] (HELM PEPTIDE1{[Glp].A.K.S.Q.G.[dA].S.N}$$$$V2.0) | 1 to 10 |
| C[C@H](NC(=O)[C@@H]1CCC(=O)N1)C(=O)N[C@@H](CCCCN)C(=O)N[C@@H](CO)C(=O)N[C@@H](CCC(N)=O)C(=O)N[C@H](C)C(=O)NCC(=O)N[C@@H](CO)C(=O)N[C@@H](CC(N)=O)C(=O)O [Example 4, pGlu-Ala-Lys-Ser-Gln-(D)-Ala-Gly-Ser-Asn-OH] (HELM PEPTIDE1{[Glp].A.K.S.Q.[dA].G.S.N}$$$$V2.0) | 0.1 to 1 |
